# Source: article PMC9964957, “A Liquid Chromatography Tandem Mass Spectrometry Method for the Simultaneous Estimation of the Dopamine Receptor Antagonist LE300 and Its N-methyl Metabolite in Plasma: Application to a Pharmacokinetic Study” (Molecules, 2023)
# Where two headings read alike, the source gives them in different places.
# Tests used:
# in vivo = settings: male, Wistar, rat, plasma, po, 10 mg/kg
# [1] = rat plasma
# [2] = Stability in stock preparations; format: physicochemical; settings: stock preparations kept at −80 °C for 28 days
# Method: LE300 and MLE300 stock solutions were prepared separately in a mixture of methanol and water (1:1) at a concentration of 1 mg/mL. Ponatinib (IS) stock solution was prepared in DMSO at 1 mg/mL. […] Successive working solutions of LE300 and MLE300 were additionally obtained through dilution using ultrapure water at concentrations of 0.05, 0.5, 5, and 20 µg/mL. A working solution of IS was prepared in ultrapure water at a concentration of 20 ng/mL. Two calibrators at concentrations ranged from 1 to 200 ng/mL and 2 to 200 ng/mL for LE300 and MLE300, respectively, were prepared in blank rat plasma from the intermediate solutions. Different quality control samples for LE300 at 1.0 ng/mL for the LLOQ, 3.0 ng/mL for the QC sample at low concentration, (LOQ), 75 ng/mL for the QC sample at mid concentration (MQC), and 175 ng/mL for the QC sample at high concentration (HQC) were prepared by spiking an appropriate volume of the intermediate solutions with blank rat plasma. Similarly, different quality control samples for MLE300 at 2.0, 6.0, 90, and 180 ng/mL for LLOQ, LOQ, MQC, and HQC were prepared. The peak area ratios of LE300 and MLE300 to IS were treated to obtain the calibration curve of each drug. Alternatively, the corresponding regression equation was derived.
# [3] = high QC (nominal 175 ng/mL LE300, 180 ng/mL MLE300)
# [4] = low QC (nominal 3 ng/mL LE300, 6 ng/mL MLE300)
AUC(0-inf) (in vivo) [ng·h/mL],AUC(0-t) (in vivo) [ng·h/mL],Cmax (in vivo) [ng/mL],Tmax (in vivo) [h],half-life (in vivo) [h],"Autosampler Stability (24 h at 15 °C) [1, 3] [%]","Freeze-Thaw Stability (3 cycles, −80 °C) [1, 3] [%]","Long-Term Stability (−80 °C for 28 d) [1, 3] [%]","Short-Term Stability (4 h at Room T) [1, 3] [%]","Autosampler Stability (24 h at 15 °C) [1, 4] [%]","Freeze-Thaw Stability (3 cycles, −80 °C) [1, 4] [%]","Long-Term Stability (−80 °C for 28 d) [1, 4] [%]","Short-Term Stability (4 h at Room T) [1, 4] [%]",Stability in stock preparations [2],"CL/F (total clearance of the drug from plasma after oral administration) (rat plasma, single oral dose 10 mg/kg LE300, mean ± SD, six rats) [L/h]","Cmax (in vivo; Cmax (maximum plasma concentration), rat plasma, single oral dose 10 mg/kg LE300, mean ± SD, six rats) [ng/mL]","CL/F (total clearance of the drug from plasma after oral administration) (rat, in vivo, po, 10 mg/kg) [L/h]",SMILES
790 ± 37.2,762 ± 34.3,170 ± 26.3,3 ± 0.18,4.56 ± 0.29,98.5 ± 1.7,99.5 ± 1.5,99.2 ± 2.3,98.8 ± 1.8,99.3 ± 1.7,98.2 ± 1.4,98.9 ± 1.4,97.9 ± 1.6,perfect stability,0.012 ± 0.01,,,CN1CCc2ccccc2Cc2c(c3ccccc3n2C)CC1 [MLE300]
577 ± 22.4,524 ± 24.3,,2 ± 0.18,7.38 ± 0.17,98.9 ± 1.3,99.2 ± 1.3,99.2 ± 1.7,98.3 ± 1.8,98.5 ± 1.8,97.9 ± 1.5,97.7 ± 1.4,98.5 ± 1.6,perfect stability,,151 ± 12.5,0.017 ± 0.01,"CN1CCc2ccccc2Cc2[nH]c3ccccc3c2CC1 [LE300, 7-methyl-6,7,8,9,14,15-hexahydro-5Hbenz[d]indolo[2,3-g]azecine]"
